Values of other authors, collected in patent US20120178700A1, “PEPTIDOMIMETIC MACROCYCLES” (Aileron Therapeutics, Inc., priority 2008, published 2012).
Blank lines part the entries; values can stand above or below the molecule they belong to.

Experiments:
c-Myc/Max dimerization = c-Myc/Max dimerization (Homo sapiens, UniProt P01106); settings: for preference for inhibition of c-Myc/Max association over related transcription factors: in the presence of their DNA binding motif in vitro
[1] = system: c-Myc-dependent oncogenic transformation; settings: versus transformation dependent on Jun

Sequence of c-Myc/Max dimerization (P01106 whole entry): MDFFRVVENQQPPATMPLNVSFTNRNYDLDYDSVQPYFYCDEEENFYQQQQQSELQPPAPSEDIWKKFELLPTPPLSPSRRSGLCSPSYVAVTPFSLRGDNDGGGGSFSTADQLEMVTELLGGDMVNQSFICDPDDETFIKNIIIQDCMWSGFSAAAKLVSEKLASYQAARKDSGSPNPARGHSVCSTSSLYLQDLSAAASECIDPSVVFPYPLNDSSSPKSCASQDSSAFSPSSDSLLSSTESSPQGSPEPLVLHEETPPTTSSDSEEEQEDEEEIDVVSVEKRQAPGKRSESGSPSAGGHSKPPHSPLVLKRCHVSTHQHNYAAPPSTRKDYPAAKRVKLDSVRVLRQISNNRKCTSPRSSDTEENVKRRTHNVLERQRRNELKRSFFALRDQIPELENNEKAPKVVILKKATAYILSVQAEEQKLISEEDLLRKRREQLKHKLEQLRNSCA

inhibition of DNA binding of Myc family proteins (Myc family proteins): inhibit DNA binding
c-Myc/Max dimerization (c-Myc/Max dimerization): without interfering
SMILES: CN(C)CCCNc1cc(O)c2c(c1O)C(=O)c1ccccc1C2=O [MYRA-A]

preference for inhibition of c-Myc/Max association over related transcription factors (c-Myc/Max dimerization): show a preference
SMILES: COc1ccc(CNC(=O)c2cc3nc(-c4cccs4)cc(C(F)(F)F)n3n2)cc1 [Mycro1]

preference for inhibition of c-Myc/Max association over related transcription factors (c-Myc/Max dimerization): show a preference
SMILES: O=C(NCc1cccs1)c1cc2nc(-c3cccs3)cc(C(F)(F)F)n2n1 [Mycro2]

SMILES: COc1ccc(CN(C(=O)c2ccccn2)C(C(=O)NC2CCCCC2)c2ccc3cc(OCC(=O)OC(C)(C)C)ccc3c2)cc1 (centres unmarked) [NY2267]
inhibition of c-Myc-dependent oncogenic transformation [1]: inhibited c-Myc-dependent oncogenic transformation with preference over transformation dependent on Jun
